“Also recorded” adds a separate entry of the source.

One assay relates to KMS27 cells. The experiment in a line: Incucyte cell confluency, KMS27 cells. The class given is cell-based. Conditions: KMS27 shIRE1 cells, titration. Here is the method: For non-adherent AMO1, KMS27, and OPM2 cells, cells were plated at 5000 cells/well in ultra-low attachment (ULA) 96-well plates (Costar, #7007) and centrifuged at 600 × g for 5 min for spheroid formation. For adherent U2OS and Colo201 cells, 2000 cells/well were seeded in a clear flat-bottom 96-well plate (Costar, #3595). Treatments were added at the time of cell seeding, and cells were cultured in complete RPMI media to a final volume of 200 µL/well. Cultures were maintained at 37 °C throughout the duration of the experiment. Cell confluency was tracked using the Incucyte live-cell imaging system (Sartorius S3). Picture frames were captured every 4 h with a 4× objective, and cell confluency (%) from the total well area as a function of time was calculated using the Incucyte software (version 2023 A Rev2).

Assay [1] deals with T1, IRE1 (Homo sapiens, UniProt O75460). The experiment in a line: Immunoblot of endogenous IRE1 depletion in AMO1 cells. The assay is classed as cell-based. Also noted: Immunoblot (IB) analysis of endogenous IRE1 depletion in AMO1 cells; endogenous in cells; host or cells: AMO1. The method, then:
(§1) Cells were lysed in buffer containing 20 mM HEPES 7.2, 150 mM NaCl, and 1% Triton X-100, supplemented with fresh protease and phosphatase inhibitors (Invitrogen, #78440), cleared by centrifugation at 12,000 × g for 10 min, and analyzed by BCA protein assay (Thermo Fisher Scientific, #23227). Equal protein amounts were loaded, separated by SDS-PAGE, electrotransferred to nitrocellulose membranes using the iBLOT2 system (Invitrogen), and blocked in 5% nonfat milk solution for 60 min. Membranes were probed with primary antibodies at 1:1000 dilution in 5% milk at 4 °C overnight. Signal was detected using appropriate horseradish peroxidase (HRP)-conjugated secondary antibodies at 1:10,000 in 5% milk at room temperature for 1–2 h. Bands were visualized by the Azure 600 western blot imaging system (Azure Biosystems). For in vitro ubiquitination assays performed with Me-Ub, bands were visualized by the Odyssey CLx Imager (LI‑COR) after incubating the blots with the IRDye 800CW (LI-COR) secondary antibodies at 1:10,000 in Intercept Blocking Buffer (LI-COR) at room temperature for 1–2 h.

The target in assay [2] is T1, IRE1. The experiment in a line: Immunoblot of endogenous IRE1 depletion in KMS27 cells. The class given is cell-based. Also noted: Immunoblot (IB) analysis of endogenous IRE1 depletion in AMO1 cells; endogenous in cells; host or cells: AMO1, KMS27, H929. Here is the method:
as §1

Assay [3] concerns the target T2, IRE1.KR with recombinant CRL2^VHL complex (Homo sapiens, UniProt O75460+P40337).
T2 construct: Recombinant human IRE1.KR (G547-L977) was purified using an established protocol; His6 (with TEV protease cleavage site) (N, cleaved yes); made in house; host or cells: Sf9 (IRE1.KR)
In words: In vitro ubiquitination of recombinant IRE1.KR by CRL2^VHL. The assay is classed as biochemical. Conditions: 0.2 µM IRE1, 0.2 µM G6374, UBE2R1, native ubiquitin. Here is the method:
The protocol for the in vitro ubiquitination experiment was adapted from a previous publication.
The ubiquitination reaction buffer contained 30 mM Tris pH 7.5, 100 mM NaCl, 5 mM MgCl2, 2 mM ATP, and 2 mM DTT. Recombinant proteins and G6374 with high stock concentrations were pre-diluted in binding buffer containing 30 mM Tris, pH 7.5, 100 mM NaCl, 1 mM DTT for the purpose of accurate pipetting.
The 0.2 µM IRE1: 0.2 µM G6374 (or DMSO) complex was pre-incubated for 15 min at room temperature, then incubated with the neddylation reaction mixture containing 0.2 µM VHL:EloB:EloC, 0.2 µM CUL2-RBX1, 0.1 µM NAE1:UBA3, 1 μM UBE2M, 3 μM NEDD8 for another 15 min at room temperature. Meanwhile, the ubiquitination reaction mixture containing 1 μM UBE1, 5 μM UBE2R1 (or UBE2D1, UBE2D2), and 500 μM ubiquitin or methyl-ubiquitin was prepared and pre-incubated for 15 min before incubation with the neddylation reaction mixture containing IRE1:G6374. Samples were taken at each timepoint and quenched in NuPage LDS buffer supplemented with NuPAGE sample reducing agent, then boiled at 95 °C for 10 min. Ubiquitinated products were visualized by IB with the IRE1 antibody.

Assay [4] addresses T3, IRE1 (Homo sapiens, UniProt O75460+P40337).
T3 construct: N2731 (HaloTag-VHL); host or cells: HEK293T
In words: NanoLuc signal IRE1 depletion, WT IRE1-NanoLuc, HEK293T cells. The assay is classed as cell-based. The method, then:
(§2) 8 × 10^5 293T cells per well were seeded in 6-well plates (Costar, #3516) and incubated at 37 °C, 5% CO2 for 6 h. A mixture of 0.2 µg ERN1 (IRE1)-NanoLuc Fusion Vector (Promega, NV1321), 2 µg HaloTag-VHL Fusion Vector (Promega, N2731), 6 µl FuGENE HD Transfection Reagent (Promega, E2311), and 100 µL Opti-MEM I reduced serum medium (Gibco, #31985062) per well was incubated at room temperature for 20 min before adding to cells. For expression of IRE1 mutants, site-directed mutagenesis was performed using the ERN1-NanoLuc Fusion Vector as the DNA template, and the transfection mixture was prepared in the same way as WT IRE1. After 18 h, cells from 6-well plates were trypsinized, resuspended in Opti-MEM I reduced serum medium, and reseeded into 96-well plates (Costar, #3917), with or without the addition of HaloTag NanoBRET 618 Ligand (Promega, G9801). After 18 h of incubation, a titration of G6374 (dilutions made in Opti-MEM I reduced serum medium) was added to the cells. After 2 h of G6374 treatment, NanoBRET Nano-Glo Substrate (Promega, N1571) was added to cells. The 96-well plates were imaged by GloMax Discover Microplate Reader (Promega, GM3000) with the default “BRET: NanoBRET 618” protocol (Donor: 450 BP; Acceptor: 600 LP; Integration: 0.3 s). Data analysis was performed according to the user manual.

A further assay has as its target T4, IRE1 E621A, E836A:VHL (Homo sapiens, UniProt O75460+P40337, E621A/E836A).
T4 construct: N2731; host or cells: HEK293T
In words: NanoBRET IRE1:VHL interaction, IRE1 E621A, E836A, HEK293T cells. The assay is classed as cell-based. The method, then:
as §2

[5] abbreviates: AMO1 cells, 17 h, immunoblot quantification, n = 4, mean ± SEM.

T1 sequence (O75460 19-977): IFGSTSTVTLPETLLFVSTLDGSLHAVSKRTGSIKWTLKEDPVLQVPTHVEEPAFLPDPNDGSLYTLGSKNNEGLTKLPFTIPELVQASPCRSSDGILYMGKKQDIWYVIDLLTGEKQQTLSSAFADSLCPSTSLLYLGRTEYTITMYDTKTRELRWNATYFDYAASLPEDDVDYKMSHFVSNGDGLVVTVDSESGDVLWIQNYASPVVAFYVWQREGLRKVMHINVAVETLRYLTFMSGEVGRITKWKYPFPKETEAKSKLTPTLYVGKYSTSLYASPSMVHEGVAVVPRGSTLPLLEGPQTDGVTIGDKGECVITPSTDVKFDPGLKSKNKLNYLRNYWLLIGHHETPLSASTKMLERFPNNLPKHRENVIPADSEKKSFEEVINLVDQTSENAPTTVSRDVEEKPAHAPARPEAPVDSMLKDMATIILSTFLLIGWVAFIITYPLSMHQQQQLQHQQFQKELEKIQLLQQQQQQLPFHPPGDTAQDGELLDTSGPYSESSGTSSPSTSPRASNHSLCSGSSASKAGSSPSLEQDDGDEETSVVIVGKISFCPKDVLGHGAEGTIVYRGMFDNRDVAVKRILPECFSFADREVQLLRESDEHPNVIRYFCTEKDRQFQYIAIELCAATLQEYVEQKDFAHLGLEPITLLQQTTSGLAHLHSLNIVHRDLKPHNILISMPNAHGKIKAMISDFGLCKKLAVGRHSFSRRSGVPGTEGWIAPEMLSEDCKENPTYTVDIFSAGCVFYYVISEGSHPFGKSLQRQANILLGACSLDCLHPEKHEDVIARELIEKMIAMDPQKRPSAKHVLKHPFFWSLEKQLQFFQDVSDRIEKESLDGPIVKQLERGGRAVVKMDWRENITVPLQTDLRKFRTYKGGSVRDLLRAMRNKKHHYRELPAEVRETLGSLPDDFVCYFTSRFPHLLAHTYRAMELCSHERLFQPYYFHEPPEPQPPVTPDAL
T3 sequence (O75460 19-977): as above
T3 sequence (P40337 whole entry): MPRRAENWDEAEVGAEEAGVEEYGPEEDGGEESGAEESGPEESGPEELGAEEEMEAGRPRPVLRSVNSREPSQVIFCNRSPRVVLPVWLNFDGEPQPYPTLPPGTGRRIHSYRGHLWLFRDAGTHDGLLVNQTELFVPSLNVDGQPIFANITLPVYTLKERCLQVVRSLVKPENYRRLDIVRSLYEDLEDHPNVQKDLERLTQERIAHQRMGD
T3 sequence (Q15369 whole entry partner): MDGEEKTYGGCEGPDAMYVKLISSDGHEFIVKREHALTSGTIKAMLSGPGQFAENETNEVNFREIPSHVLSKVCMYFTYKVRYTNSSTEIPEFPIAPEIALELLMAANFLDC
T3 sequence (Q15370 whole entry partner): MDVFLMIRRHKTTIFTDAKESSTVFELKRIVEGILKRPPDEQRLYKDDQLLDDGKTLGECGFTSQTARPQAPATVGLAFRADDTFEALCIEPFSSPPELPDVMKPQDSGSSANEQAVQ
T3 sequence (Q13617 whole entry partner): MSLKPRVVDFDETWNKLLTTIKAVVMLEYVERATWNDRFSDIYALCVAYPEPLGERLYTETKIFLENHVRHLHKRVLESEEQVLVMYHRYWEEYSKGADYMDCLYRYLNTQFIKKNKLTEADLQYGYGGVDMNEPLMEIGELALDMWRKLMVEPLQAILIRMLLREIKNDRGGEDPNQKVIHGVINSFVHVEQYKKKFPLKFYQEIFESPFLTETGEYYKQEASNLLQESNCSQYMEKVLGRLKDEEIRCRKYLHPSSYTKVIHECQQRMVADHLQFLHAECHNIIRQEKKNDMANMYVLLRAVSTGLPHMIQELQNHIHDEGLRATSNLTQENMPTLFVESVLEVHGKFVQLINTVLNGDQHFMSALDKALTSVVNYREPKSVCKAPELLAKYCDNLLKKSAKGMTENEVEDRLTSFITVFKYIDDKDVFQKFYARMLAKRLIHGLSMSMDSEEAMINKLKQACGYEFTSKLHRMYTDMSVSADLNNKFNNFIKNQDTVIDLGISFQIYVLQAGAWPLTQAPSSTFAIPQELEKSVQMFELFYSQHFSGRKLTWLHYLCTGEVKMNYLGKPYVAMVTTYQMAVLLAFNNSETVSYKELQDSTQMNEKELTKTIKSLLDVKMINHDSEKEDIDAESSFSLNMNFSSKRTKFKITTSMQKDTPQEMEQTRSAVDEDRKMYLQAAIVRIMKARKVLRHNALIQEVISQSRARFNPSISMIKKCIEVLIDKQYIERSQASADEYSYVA
T3 sequence (P62877 whole entry partner): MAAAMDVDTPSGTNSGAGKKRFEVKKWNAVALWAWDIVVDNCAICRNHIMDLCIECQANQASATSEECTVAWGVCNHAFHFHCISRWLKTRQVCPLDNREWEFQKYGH
T4 sequence (P62877 whole entry): as the sequence (P62877 whole entry partner) above
T4 sequence (Q15370 whole entry, further chain): as the sequence (Q15370 whole entry partner) above
T4 sequence (Q15369 whole entry, further chain): as the sequence (Q15369 whole entry partner) above
T4 sequence (Q13617 whole entry, further chain): as the sequence (Q13617 whole entry partner) above
T4 sequence (P40337 whole entry): as the sequence (P40337 whole entry) above
T4 sequence (O75460 19-977 E621A/E836A): as the sequence (O75460 19-977) above, with E603A, E818A counted along it

Consider `Cc1ncsc1-c1ccc(CNC(=O)[C@@H]2C[C@@H](O)CN2C(=O)[C@@H](NC(=O)CCCCN2CCN([C@H]3CC[C@H](Nc4ncc5ccc(=O)n(C(C)C)c5n4)CC3)CC2)C(C)(C)C)cc1` [G6374], for which, in the assay with KMS27 cells, the “growth inhibition (cell confluency)” value was “concentration-dependent growth inhibition”. For the same compound, the “IRE1 depletion under ER stress (thapsigargin or tunicamycin)” value on IRE1 [1] (AMO1 and KMS27 cells, G6374 3 µM, 2 hr, Tg 100 nM or Tm 5 µg/ml, 6 hr) is reported as “did not encumber G6374-driven IRE1 depletion”. In addition, at IRE1 [1] (AMO1 cells, 1 µM, 0-8 h), the “IRE1 depletion over a time course” value is on record as “reaches near maximum levels by 4 hr; also recorded: near complete IRE1 depletion by 4 h”. Moreover, the DC50 on IRE1 [1] (setting [5]) was 40 nM; on IRE1 [2] (immunoblot quantification) it was 130 nM; on IRE1 [4] (estimated), 130 nM. Besides, the Dmax at IRE1 [1] (setting [5]) is 93%; at IRE1 [2] (KMS-27, immunoblot quantification) it was 98%; on IRE1 [4] (HEK-293T, 2 h, n = 3, mean ± SEM), 78%. For the same compound, the “IRE1.KR polyubiquitination in vitro” value in assay [3] was “clear G6374-dependent IRE1 polyubiquitination”. This compound also gave a concentration giving a half-maximal response (EC50) at IRE1 E621A, E836A:VHL of 50 ± 20 nM.

Values taken from PMC12749748, “Chemically-induced degradation of the endoplasmic-reticulum stress sensor IRE1 by a VHL-recruiting chimera” (Nature Communications, 2025).
